Assay results reported in patent publication US7405206B2, “Anti-inflammatory androstane derivatives” (Glaxo Group Limited, priority 2001, dated 2008).

Tests used:
[1] = test system: Male CD rats; assay: Rat model of thymus involution (systemic steroid effects); type: in vivo; details: daily for 3 days
Experimental: Systemic steroid effects were assessed in a rat model of thymus involution. Male CD rats were dosed intra-tracheally daily for 3 days with saline vehicle (20 μl Tween 80 in 100 ml saline) or with a suspension of test compound (dose volume 200 μL). On day 4 the animals were culled and the thymus removed and weighed.

[2] = test system: A549 cells stably transfected with a reporter gene containing the NF-κB responsive elements from the ELAM gene promoter coupled to sPAP; assay: Functional in vitro assay of glucocorticoid agonist activity (NF-κB/ELAM-sPAP reporter, TNF stimulated); type: cell-based; details: compound 1 hour at 37° C., then TNF 10 ng/ml for 16 hours
Experimental: Pharmacological activity was assessed in a functional in vitro assay of glucocorticoid agonist activity which is generally predictive of anti-inflammatory or anti-allergic activity in vivo.
The functional assay was based on that described by K. P. Ray et al., Biochem J. (1997), 328, 707-715. A549 cells stably transfected with a reporter gene containing the NF-κB responsive elements from the ELAM gene promoter coupled to sPAP (secreted alkaline phosphatase) were treated with test compounds at appropriate doses for 1 hour at 37° C. The cells were then stimulated with tumour necrosis factor (TNF, 10 ng/ml) for 16 hours, at which time the amount of alkaline phosphatase produced is measured by a standard colourimetric assay. Dose response curves were constructed from which EC50 values were estimated.

[3] = test system: Balb/c mice; assay: Oxazolone induced contact hypersensitivity model (ear swelling); type: in vivo; details: topical to right ear 1 hour prior to and 3 hours post oxazolone challenge; ear thickness 24 hours post challenge
Experimental: Pharmacological activity in vivo was assessed using an oxazolone induced contact hypersensitivity model in Balb/c mice similar to that described by Cumberbatch et al., Immunology (2002), 105, 466-477.
Balb/c female mice (18-20 g) were sensitised to oxazolone by the addition of 50 μl to the shaved right flank, of 2.5% oxazolone in acetone:olive oil (4:1). Control (unsensitised) mice were dosed with acetone:olive oil. Five days later all mice were challenged by the addition of 25 μl of 0.25% oxazolone in acetone olive oil (4:1) to the dorsal surface of both ears under isoflourane anaesthesia. 10 μl of solution of test compound at the appropriate concentration or vehicle (absolute ethanol) was applied to the dorsal surface of the right ear 1 hour prior to and 3 hours post oxazolone challenge under isoflourane anaesthesia. The left ear remained untreated to allow assessment of systemic exposure. Ear thickness measurements were taken using an engineer's micrometer prior to the addition of steroid and again 24 hours post oxazolone challenge. Results expressed as the percentage inhibition of ear swelling, from which EC50 values were calculated.

[4] = Hydrolysis in human plasma; type: in vitro ADME; details: 37°, 5 μg/ml, LC-MS/MS
Experimental: Compounds were incubated at 37° in human plasma at a concentration of 5 μg/ml. Aliquots were taken at time 0 and every 30 seconds for the next 10 minutes and were extracted by protein precipitation and analysed by LC-MS/MS.

With CCCC1O[C@@H]2C[C@H]3[C@@H]4CCC5=CC(=O)C=C[C@]5(C)[C@H]4[C@@H](O)C[C@]3(C)[C@]2(C(=O)CO)O1 (stereo partly shown) [budesonide, reference compound] as the compound, how does the “reduction in thymus weight” value ([1]; 100 mg/day intra-tracheally) read?
The value was 65%.

Which EC50 [2] does the source give for CC1CC2C3CC(F)C4=CC(=O)C=CC4(C)C3(F)C(O)CC2(C)C1(OC(=O)c1cc(Cl)sc1Cl)C(=O)SC1CCOC1=O (stereo not drawn) [Example 15, 17α-[(2,5-Dichlorothiophene-3-carbonyl)oxy]-6α,9α-difluoro-11β-hydroxy-16α-methyl-3-oxo-androsta-1,4-diene-17β-carbothioic acid S-(2-oxo-tetrahydro-furan-3S-yl)ester] here?
Its EC50 is 16 nM.

With C[C@@H]1C[C@H]2[C@@H]3C[C@H](F)C4=CC(=O)C=C[C@]4(C)[C@@]3(F)[C@@H](O)C[C@]2(C)[C@@]1(OC(=O)c1ccco1)C(=O)S[C@H]1CCOC1=O [Example 1, 6α,9α-Difluoro-17α-[(2-furanylcarbonyl)oxy]-11β-hydroxy-16α-methyl-3-oxo-androsta-1,4-diene-17β-carbothioic acid S-(2-oxo-tetrahydro-furan-3S-yl)ester] as the compound, how does the “EC50 (inhibition of ear swelling)” value [3] read?
The value was 0.3 µg.

What about the “effect on thymus weight” value ([1]; 1000 μg/day intra-tracheally) of the same compound?
Its value is “no effect”.

What about the half-life [4] of the same compound?
The half-life was 1.2 min.

Which EC50 [2] does the source give for COc1c(C(=O)OC2(C(=O)SC3CCOC3=O)C(C)CC3C4CC(F)C5=CC(=O)C=CC5(C)C4(F)C(O)CC32C)csc1Cl (stereo not drawn) [Example 12, 17α-[(5-Chloro-4-methoxy-thiophene-3-carbonyl)oxy]-6α,9α-difluoro-11β-hydroxy-16α-methyl-3-oxo-androsta-1,4-diene-17β-carbothioic acid S-(2-oxo-tetrahydro-furan-3S-yl)ester] here?
The EC50 was 40 nM.

For Cc1noc(C)c1C(=O)OC1(C(=O)SC2CCOC2=O)C(C)CC2C3CC(F)C4=CC(=O)C=CC4(C)C3(F)C(O)CC21C (stereo not drawn) [Example 11, 6α,9α-Difluoro-17α-[(3,5-dimethylisoxazole-4-carbonyl)oxy]-11β-hydroxy-16α-methyl-3-oxo-androsta-1,4-diene-17β-carbothioic acid S-(2-oxo-tetrahydro-furan-3S-yl)ester], which EC50 [2] is on record?
The EC50 was 28 nM.
